Patent US5962314A, “Calcium receptor-active molecules” (priority 1997, dated 1999)
Entries after “also recorded” stand apart in the source; their conditions may differ.

Tests used:
C-cell calcium receptor = target: T1, C-cell calcium receptor (Rattus norvegicus, UniProt P48442); assay type: cell-based
T1 construct: Neoplastic C-cells derived from a rat medullary thyroid carcinoma (rMTC 6-23); host or cells: rMTC 6-23 cells
T1 sequence (P48442 20-1079): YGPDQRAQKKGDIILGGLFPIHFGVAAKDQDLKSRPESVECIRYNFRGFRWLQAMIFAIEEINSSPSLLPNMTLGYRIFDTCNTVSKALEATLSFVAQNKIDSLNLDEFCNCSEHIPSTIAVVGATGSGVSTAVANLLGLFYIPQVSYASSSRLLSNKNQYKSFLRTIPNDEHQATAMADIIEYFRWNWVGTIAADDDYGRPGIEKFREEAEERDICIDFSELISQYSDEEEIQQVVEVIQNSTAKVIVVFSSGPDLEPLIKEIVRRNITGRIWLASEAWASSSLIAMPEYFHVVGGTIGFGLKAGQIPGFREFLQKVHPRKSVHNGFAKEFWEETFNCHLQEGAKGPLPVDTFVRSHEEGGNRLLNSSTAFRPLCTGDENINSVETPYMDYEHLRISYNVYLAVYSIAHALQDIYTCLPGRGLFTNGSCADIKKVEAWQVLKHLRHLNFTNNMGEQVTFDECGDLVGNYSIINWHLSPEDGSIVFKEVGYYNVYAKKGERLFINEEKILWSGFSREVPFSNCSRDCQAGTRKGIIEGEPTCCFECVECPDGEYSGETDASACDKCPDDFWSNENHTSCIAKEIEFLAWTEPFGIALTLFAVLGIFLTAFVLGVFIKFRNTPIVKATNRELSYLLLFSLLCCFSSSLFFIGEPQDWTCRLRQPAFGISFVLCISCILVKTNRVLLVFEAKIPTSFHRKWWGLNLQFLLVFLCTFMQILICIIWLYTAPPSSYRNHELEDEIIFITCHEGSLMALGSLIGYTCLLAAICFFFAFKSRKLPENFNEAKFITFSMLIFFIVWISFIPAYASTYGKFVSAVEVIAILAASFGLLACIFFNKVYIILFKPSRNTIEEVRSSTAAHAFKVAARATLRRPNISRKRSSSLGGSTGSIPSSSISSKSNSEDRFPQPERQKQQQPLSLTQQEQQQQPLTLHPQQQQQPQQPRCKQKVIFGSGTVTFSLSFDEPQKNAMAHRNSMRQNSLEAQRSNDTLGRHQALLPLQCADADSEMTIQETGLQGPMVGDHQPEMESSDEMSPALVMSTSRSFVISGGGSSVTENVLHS
Description: To assess the effects of molecular polycations on C-cells, a neoplastic cell line, derived from a rat medullary thyroid carcinoma (rMTC 6-23 cells) was used.

bovine parathyroid cells = assay: PTH secretion from bovine parathyroid cells; assay type: cell-based; conditions: bovine parathyroid cells
human parathyroid cells = assay: PTH secretion from human parathyroid cells; assay type: cell-based; conditions: human (adenoma) parathyroid cells
Description: PTH secretion was measured by first suspending cells in PCB containing 0.5 mM CaCl2 and 0.1% BSA.
For human cells, a commercially available radioimmunoassay kit (INS-PTH; Nichols Institute, Los Angeles, Calif.) which recognizes intact and N-terminal human PTH was used because GW-1 antibody recognizes human PTH poorly.

calcitonin = calcitonin levels in rats; assay type: in vivo, rat; conditions: NPS R-568 p.o.
[1] = target: T2, parathyroid cell calcium receptor (Bos taurus, UniProt P35384); assay: Cl- current in Xenopus oocytes injected with bovine parathyroid cell mRNA; assay type: cell-based; set-up: Whole pieces of gland were used to prepare mRNA that directs the expression of the calcium receptor in Xenopus oocytes; expressed in transfected cells; host or cells: Xenopus laevis oocytes injected with parathyroid poly(A)+ mRNA; conditions: oocytes expressing parathyroid calcium receptor; fendiline 100 μM
T2 sequence (P35384 20-1085): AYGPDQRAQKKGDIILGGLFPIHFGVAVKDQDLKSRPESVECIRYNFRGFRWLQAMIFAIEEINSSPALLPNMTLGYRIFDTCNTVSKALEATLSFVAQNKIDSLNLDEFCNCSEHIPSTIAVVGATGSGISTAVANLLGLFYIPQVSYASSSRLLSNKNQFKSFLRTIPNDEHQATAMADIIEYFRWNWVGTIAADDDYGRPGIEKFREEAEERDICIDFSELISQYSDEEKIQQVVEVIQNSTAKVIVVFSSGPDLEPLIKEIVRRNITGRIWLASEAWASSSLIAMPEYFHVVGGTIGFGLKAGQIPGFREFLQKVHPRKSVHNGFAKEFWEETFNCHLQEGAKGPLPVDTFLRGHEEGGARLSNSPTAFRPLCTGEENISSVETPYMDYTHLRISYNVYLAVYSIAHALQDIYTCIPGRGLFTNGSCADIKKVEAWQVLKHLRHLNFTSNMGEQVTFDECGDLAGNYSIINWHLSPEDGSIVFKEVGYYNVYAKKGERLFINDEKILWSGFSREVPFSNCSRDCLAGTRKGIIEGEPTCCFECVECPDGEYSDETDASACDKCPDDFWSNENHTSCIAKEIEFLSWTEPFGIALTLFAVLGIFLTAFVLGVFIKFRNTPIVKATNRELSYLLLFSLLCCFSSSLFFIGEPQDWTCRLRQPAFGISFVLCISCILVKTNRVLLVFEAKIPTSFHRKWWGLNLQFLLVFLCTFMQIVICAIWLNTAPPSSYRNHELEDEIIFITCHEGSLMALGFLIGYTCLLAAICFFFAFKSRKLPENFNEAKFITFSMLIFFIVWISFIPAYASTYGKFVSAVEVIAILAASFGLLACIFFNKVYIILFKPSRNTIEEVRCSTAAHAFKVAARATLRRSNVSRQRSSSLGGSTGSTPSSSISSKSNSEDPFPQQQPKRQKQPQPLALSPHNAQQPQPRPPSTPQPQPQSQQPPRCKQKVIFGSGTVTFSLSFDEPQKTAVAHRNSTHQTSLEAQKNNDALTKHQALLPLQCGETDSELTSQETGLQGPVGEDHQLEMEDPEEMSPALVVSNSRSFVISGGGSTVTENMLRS
Description: Following incubation, an oocyte was placed into a 100-μl plastic chamber and superfused with MBS at a flow rate of 0.5 ml/min using a peristaltic pump. Test molecules or inorganic polycations were added by rapidly moving the tubing into different buffers. Recording and current-passing electrodes were constructed from thin-wall capillary tubing pulled to a resistance of 1-3 Mohms and filled with 3 M KCl. […] Currents were recorded directly onto a strip chart recorder.

serum calcium = assay: hypocalcemic response in thyroidectomized rats; assay type: in vivo, rat; conditions: 3 to 100 mg/kg p.o.
Text: In subsequent studies, rats received a thyroidectomy (parathyroid glands intact). This surgical procedure effectively removed the C-cells secreting calcitonin and therefore enabled the relative contributions of PTH and calcitonin to the hypocalcemic effect of this compound to be determined. […] The only difference was that the rate of onset of the hypqcalcemic response was somewhat delayed in thyroidectomized animals. […] Stimulatory effects of this compound on calcitonin secretion increases the rate of onset, but not the extent, of hypocalcemia.

Structure (SMILES) | effect on [Ca2+]i in C-cells (C-cell calcium receptor) | effect on PTH secretion (bovine parathyroid cells) | effect on PTH secretion (human parathyroid cells; listed as Neomycin B) | effect on PTH secretion (human parathyroid cells; listed as neomycin B) | effect on calcitonin, oral (calcitonin) | effect on Cl- current / intracellular Ca2+ [1] | hypocalcemic response in thyroidectomized rats (serum calcium)
NCCCNCCCCNCCCNCCCNCCCNC(=O)Cc1c[nH]c2ccccc12 [NPS 019] | mobilization of intracellular Ca^2+ |  |  |  |  |  | 
NC[C@@H]1O[C@H](O[C@H]2[C@@H](O)[C@H](O[C@@H]3[C@@H](O)[C@H](N)C[C@H](N)[C@H]3O[C@H]3O[C@H](CN)[C@@H](O)[C@H](O)[C@H]3N)O[C@@H]2CO)[C@H](N)[C@@H](O)[C@@H]1O [Neomycin] | fails to affect basal or evoked increases in C-cells; also recorded: without effect on basal [Ca^2+ ]i; also recorded: fail to affect the calcium receptors on C-cells or osteoclasts | inhibited PTH secretion to the same extent as extracellular Ca^2+ | inhibited PTH secretion from human parathyroid cells | inhibit PTH secretion |  |  | 
COc1cccc([C@@H](C)NCCCc2ccccc2Cl)c1 [NPS R-568, (R)-(+)-N-[3-(2-chlorophenyl)propyl]-α-methyl-3-methoxybenzylamine] |  |  |  |  | increase in calcitonin | potent molecule active on Xenopus oocytes expressing the parathyroid cell calcium receptor | hypocalcemic response equal in magnitude to that produced in sham-operated animals
